Structures are written as SMILES. pIC50: −log10 of the molar value.

Chain of Acetyl-CoA carboxylase 2 (O00763 whole entry): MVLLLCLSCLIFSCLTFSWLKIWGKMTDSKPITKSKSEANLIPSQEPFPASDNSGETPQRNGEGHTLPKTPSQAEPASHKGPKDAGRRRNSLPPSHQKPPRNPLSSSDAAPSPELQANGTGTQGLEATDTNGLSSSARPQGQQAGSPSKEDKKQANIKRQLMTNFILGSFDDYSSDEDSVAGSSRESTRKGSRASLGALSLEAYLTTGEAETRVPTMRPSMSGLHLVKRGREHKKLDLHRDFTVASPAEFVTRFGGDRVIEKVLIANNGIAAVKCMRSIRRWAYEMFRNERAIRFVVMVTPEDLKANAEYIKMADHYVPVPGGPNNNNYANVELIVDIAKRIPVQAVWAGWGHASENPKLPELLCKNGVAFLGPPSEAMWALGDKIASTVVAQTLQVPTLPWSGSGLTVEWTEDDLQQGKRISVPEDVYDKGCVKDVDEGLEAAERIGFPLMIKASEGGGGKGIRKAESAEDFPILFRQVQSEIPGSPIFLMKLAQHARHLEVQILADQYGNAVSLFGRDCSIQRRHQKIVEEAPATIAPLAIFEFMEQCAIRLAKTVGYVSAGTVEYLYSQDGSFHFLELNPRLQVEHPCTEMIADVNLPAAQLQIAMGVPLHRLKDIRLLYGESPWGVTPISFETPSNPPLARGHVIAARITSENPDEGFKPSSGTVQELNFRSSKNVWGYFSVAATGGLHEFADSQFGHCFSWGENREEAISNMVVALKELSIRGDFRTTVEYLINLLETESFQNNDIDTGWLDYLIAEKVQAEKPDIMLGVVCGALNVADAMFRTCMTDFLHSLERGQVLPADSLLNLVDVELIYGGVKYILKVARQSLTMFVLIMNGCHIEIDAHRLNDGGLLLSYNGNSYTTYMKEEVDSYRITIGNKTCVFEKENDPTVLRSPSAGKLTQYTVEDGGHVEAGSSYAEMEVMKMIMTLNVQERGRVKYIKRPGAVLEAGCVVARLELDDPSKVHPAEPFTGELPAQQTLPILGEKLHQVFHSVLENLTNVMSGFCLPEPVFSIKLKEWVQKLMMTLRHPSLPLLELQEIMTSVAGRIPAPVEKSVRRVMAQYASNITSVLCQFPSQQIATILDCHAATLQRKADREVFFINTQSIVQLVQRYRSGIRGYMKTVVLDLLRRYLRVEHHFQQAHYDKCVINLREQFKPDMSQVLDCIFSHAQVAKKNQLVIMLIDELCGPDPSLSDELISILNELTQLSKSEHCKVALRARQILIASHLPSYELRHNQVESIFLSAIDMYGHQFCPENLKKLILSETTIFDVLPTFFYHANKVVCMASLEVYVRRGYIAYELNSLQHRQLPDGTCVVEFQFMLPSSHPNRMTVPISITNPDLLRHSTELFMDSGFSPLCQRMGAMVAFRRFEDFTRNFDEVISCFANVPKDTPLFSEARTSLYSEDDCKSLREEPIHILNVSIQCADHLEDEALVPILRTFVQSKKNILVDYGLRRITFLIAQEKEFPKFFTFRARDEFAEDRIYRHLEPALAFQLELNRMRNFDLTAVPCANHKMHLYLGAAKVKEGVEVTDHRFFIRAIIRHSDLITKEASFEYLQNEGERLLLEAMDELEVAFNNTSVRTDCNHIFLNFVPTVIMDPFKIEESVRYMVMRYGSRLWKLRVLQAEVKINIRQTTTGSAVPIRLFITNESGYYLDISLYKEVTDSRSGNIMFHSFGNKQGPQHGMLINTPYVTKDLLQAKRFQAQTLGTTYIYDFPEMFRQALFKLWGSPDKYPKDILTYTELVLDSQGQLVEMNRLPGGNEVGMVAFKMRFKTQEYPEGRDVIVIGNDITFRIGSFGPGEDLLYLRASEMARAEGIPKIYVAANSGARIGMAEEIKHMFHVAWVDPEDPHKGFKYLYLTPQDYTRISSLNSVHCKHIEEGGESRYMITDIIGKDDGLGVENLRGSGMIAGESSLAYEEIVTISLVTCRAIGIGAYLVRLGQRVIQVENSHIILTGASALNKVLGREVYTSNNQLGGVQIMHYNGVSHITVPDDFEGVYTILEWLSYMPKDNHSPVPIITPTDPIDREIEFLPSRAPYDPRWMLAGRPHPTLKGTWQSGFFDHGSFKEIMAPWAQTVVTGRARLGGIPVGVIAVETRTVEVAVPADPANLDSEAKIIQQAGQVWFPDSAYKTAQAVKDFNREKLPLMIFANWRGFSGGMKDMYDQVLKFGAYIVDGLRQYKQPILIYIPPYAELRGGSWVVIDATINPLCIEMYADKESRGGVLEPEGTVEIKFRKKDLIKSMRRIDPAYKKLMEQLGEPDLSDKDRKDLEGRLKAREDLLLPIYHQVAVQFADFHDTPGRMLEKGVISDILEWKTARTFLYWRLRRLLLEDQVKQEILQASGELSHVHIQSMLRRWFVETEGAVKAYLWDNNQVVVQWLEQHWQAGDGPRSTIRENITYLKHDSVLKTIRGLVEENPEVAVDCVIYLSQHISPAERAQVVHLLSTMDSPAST

The experiment addresses Acetyl-CoA carboxylase 2 (Homo sapiens, UniProt O00763). The experiment is described as follows: Spectrophotometric 384 Well Assay: Malonyl CoA formation by acetyl CoA carboxylases is stoichometrically linked to the consumption of ATP. ACC2 activity is measured in a NADH-linked kinetic method measuring ADP generated during the ACC reaction using a coupled lactate dehydrogenase/pyruvate kinase reaction.For biological testing, a human ACC2 construct which lacks the 128 amino acids at the N-terminus for increased solubility (nt 385-6966 in Genbank entry AJ575592) is cloned. The protein is then expressed in insect cells using a baculoviral expression system. Protein purification is performed by anion exchange.All compounds are dissolved in dimethyl sulfoxide (DMSO) to a concentration of 10 mM.Assay reactions are then carried out in 384-well plates, with hACC2 in an appropriate dilution and at final assay concentrations (f.c.) of 100 mM Tris (pH 7.5), 10 mM trisodium citrate, 25 mM KHCO3, 10 mM MgCl2, 0.5 mg/mL BSA, 3.75 mM reduced L-glutathione, 15 U/mL lactate dehydrogenase, 0.5 mM phosphoenolpyruvate.
As for `CCOc1ccc(C#Cc2ccc(CC(C)NC(=O)CC3CC3)cc2)cc1` (centres undefined), the pIC50 (commonly the negative decadic logarithm of the IC50, by convention in mol/L) was 6.10.

With `CC(=O)NC(C)Cc1ccc(C#Cc2ccc(C(=O)NCC(C)C)cc2)cc1` (centres undefined), the pIC50 is 5.38.

`CC(=O)NC(C)Cc1ccc(C#Cc2cccc(C(=O)N3CCC3)c2)cc1` (centres undefined) had a pIC50 of 5.68.

As for `CC(=O)NC(C)Cc1ccc(C#Cc2ccnc(NCC(F)F)n2)cc1` (centres undefined), the pIC50 is 5.00.

For the origin of these results see ChEMBL document CHEMBL3639333, “Compounds, pharmaceutical compositions and uses thereof” (2014).
